Results published in the supplement of paper PMC4862054.
Values joined by “and” are separate entries in the source; they are usually repeats but may differ in a detail not shown here. Equal entries are not always repeated.

Legend:
MDA-MB-468 [1] = settings: 72 h
Summary of the method: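 The plates used were 384-well plates holding compound at 5 concentrations in 10-fold steps across a compound-specific 10,000-fold range, into which breast cancer cell lines were seeded in 20 µl suspension. Following 72 h incubation, CellTox Green fluorescence was read at 485/520 nm, and CellTiter-Glo luminescence was read after 10 min at room temperature. Normalisation on each plate used 0.1 % DMSO and a positive kill control. Dose-response curves gave the EC50, which was censored at the top concentration.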

BT-474 = experiment: normalised viability (% of control), CellTiter-Blue; higher = more viable cells (about 100 = DMSO control); settings: incubation time: 72 h
Summary of the method: (§1)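 384-well plates were pre-loaded with compound in 5 µl medium before 20 µl of breast cancer cell suspension was seeded. Following 72 h incubation, 2.5 µl CellTiter-Blue reagent was added for 2 h at 37 °C. Fluorescence was read at 560/590 nm and plates were normalised to vehicle (100) and a positive kill control (0), checked by Z'-factor. Normalised viability is reported at a single listed concentration of the series.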

BT-549 = experiment: as above; settings: incubation time: 72 h
Summary of the method: as §1

CAL-120 = experiment: as above; settings: incubation time: 72 h
Summary of the method: as §1

CAL-148 = experiment: as above; settings: incubation time: 72 h
Summary of the method: as §1

CAL-51 = experiment: as above; settings: incubation time: 72 h
Summary of the method: as §1

CAL-85-1 = experiment: as above; settings: incubation time: 72 h
Summary of the method: as §1

DU-4475 = experiment: as above; settings: incubation time: 72 h
Summary of the method: as §1

HCC1143 = experiment: as above; settings: incubation time: 72 h
Summary of the method: as §1

HCC1599 = experiment: as above; settings: incubation time: 72 h
Summary of the method: as §1

HCC1937 = experiment: as above; settings: incubation time: 72 h
Summary of the method: as §1

HDQ-P1 = experiment: as above; settings: incubation time: 72 h
Summary of the method: as §1

Hs578T = experiment: as above; settings: incubation time: 72 h
Summary of the method: as §1

MDA-MB-231 = experiment: as above; settings: incubation time: 72 h
Summary of the method: as §1

MDA-MB-436 = experiment: as above; settings: incubation time: 72 h
Summary of the method: as §1

MDA-MB-453 = experiment: as above; settings: incubation time: 72 h
Summary of the method: as §1

MDA-MB-468 [2] = experiment: as above; settings: incubation time: 72 h
Summary of the method: as §1

MFM-223 = experiment: as above; settings: incubation time: 72 h
Summary of the method: as §1

SK-BR-3 = experiment: as above; settings: incubation time: 72 h
Summary of the method: as §1

Question: With `CCc1c2c(nc3ccc(OC(=O)N4CCC(N5CCCCC5)CC4)cc13)-c1cc3c(c(=O)n1C2)COC(=O)[C@]3(O)CC` [Irinotecan] as the compound, how does the “EC50, CellTiter-Glo” value (MDA-MB-468 [1]) read?
Answer: 1620 nM

Question: What about the normalised viability (BT-474; 10 nM) of the same compound?
Answer: 102% and 114%

Question: And the normalised viability (BT-474; 1000 nM)?
Answer: 106% and 109%

Question: And the normalised viability (BT-474; 10000 nM)?
Answer: 97.2% and 105%

Question: What about the normalised viability (BT-549; 10 nM) of the same compound?
Answer: 80.8% and 86%

Question: And the normalised viability (BT-549; 1000 nM)?
Answer: 82.2% and 84.3%

Question: What about the normalised viability (BT-549; 10000 nM) of the same compound?
Answer: 71% and 62%

Question: And the normalised viability (CAL-120; 10 nM)?
Answer: 83.3% and 96.8%

Question: What about the normalised viability (CAL-120; 1000 nM) of the same compound?
Answer: 68.2% and 89.1%

Question: And the normalised viability (CAL-120; 10000 nM)?
Answer: 47.4% and 55.8%

Question: What about the normalised viability (CAL-148; 3 nM) of the same compound?
Answer: 77.4% and 98.8%

Question: And the normalised viability (CAL-148; 30 nM)?
Answer: 90.3% and 101%

Question: And the normalised viability (CAL-148; 100 nM)?
Answer: 80.5% and 99.7%

Question: And the normalised viability (CAL-51; 3 nM)?
Answer: 106% and 120%

Question: What about the normalised viability (CAL-51; 30 nM) of the same compound?
Answer: 99% and 110%

Question: And the normalised viability (CAL-51; 100 nM)?
Answer: 98.4% and 106%

Question: What about the normalised viability (CAL-85-1; 3 nM) of the same compound?
Answer: 94.6% and 96.1%

Question: And the normalised viability (CAL-85-1; 30 nM)?
Answer: 78.8% and 92.5%

Question: And the normalised viability (CAL-85-1; 100 nM)?
Answer: 86.4% and 103%

Question: And the normalised viability (DU-4475; 3 nM)?
Answer: 111% and 115%

Question: What about the normalised viability (DU-4475; 30 nM) of the same compound?
Answer: 87.3% and 103%

Question: What about the normalised viability (DU-4475; 100 nM) of the same compound?
Answer: 101% and 93.7%

Question: What about the normalised viability (HCC1143; 10 nM) of the same compound?
Answer: 74.2% and 87.3%

Question: And the normalised viability (HCC1143; 1000 nM)?
Answer: 91.4% and 95.9%

Question: What about the normalised viability (HCC1143; 10000 nM) of the same compound?
Answer: 47.7% and 62.6%

Question: And the normalised viability (HCC1599; 10 nM)?
Answer: 81.2% and 102%

Question: What about the normalised viability (HCC1599; 1000 nM) of the same compound?
Answer: 74.3% and 81.7%

Question: What about the normalised viability (HCC1599; 10000 nM) of the same compound?
Answer: 57.8% and 78.1%

Question: And the normalised viability (HCC1937; 10 nM)?
Answer: 110% and 91.4%

Question: And the normalised viability (HCC1937; 1000 nM)?
Answer: 54.7% and 60.4%

Question: And the normalised viability (HCC1937; 10000 nM)?
Answer: 27.8% and 10.4%

Question: And the normalised viability (HDQ-P1; 3 nM)?
Answer: 109% and 101%

Question: What about the normalised viability (HDQ-P1; 30 nM) of the same compound?
Answer: 99.4% and 104%

Question: What about the normalised viability (HDQ-P1; 100 nM) of the same compound?
Answer: 99.8% and 101%

Question: What about the normalised viability (Hs578T; 10 nM) of the same compound?
Answer: 98.6% and 100%

Question: And the normalised viability (Hs578T; 1000 nM)?
Answer: 83% and 95.2%

Question: And the normalised viability (MDA-MB-231; 10 nM)?
Answer: 85.2% and 94.5%

Question: What about the normalised viability (MDA-MB-231; 1000 nM) of the same compound?
Answer: 84.7% and 89.4%

Question: What about the normalised viability (MDA-MB-231; 10000 nM) of the same compound?
Answer: 72.8% and 78.7%

Question: And the normalised viability (MDA-MB-436; 10 nM)?
Answer: 89.1% and 93%

Question: And the normalised viability (MDA-MB-436; 1000 nM)?
Answer: 79.6% and 92.3%

Question: And the normalised viability (MDA-MB-453; 3 nM)?
Answer: 101% and 124%

Question: And the normalised viability (MDA-MB-453; 30 nM)?
Answer: 85.5% and 96.2%

Question: And the normalised viability (MDA-MB-453; 100 nM)?
Answer: 99.8% and 110%

Question: And the normalised viability (MDA-MB-468 [2]; 10 nM)?
Answer: 106% and 105%

Question: And the normalised viability (MDA-MB-468 [2]; 1000 nM)?
Answer: 76% and 87.3%

Question: What about the normalised viability (MDA-MB-468 [2]; 10000 nM) of the same compound?
Answer: 35.5% and 42.8%

Question: And the normalised viability (MFM-223; 10 nM)?
Answer: 88.5% and 97%

Question: What about the normalised viability (MFM-223; 1000 nM) of the same compound?
Answer: 100% and 99.8%

Question: What about the normalised viability (SK-BR-3; 10 nM) of the same compound?
Answer: 92.4% and 108%

Question: And the normalised viability (SK-BR-3; 10000 nM)?
Answer: 36.6% and 41.3%

Question: Which “EC50, CellTiter-Glo” value (MDA-MB-468 [1]) does the source give for `COC(=O)c1ccc2c(c1)NC(=O)/C2=C(\Nc1ccc(N(C)C(=O)CN2CCN(C)CC2)cc1)c1ccccc1` [Nintedanib] here?
Answer: 3360 nM

Question: `CN(C)CCOc1ccc(/C(=C(/CCCl)c2ccccc2)c2ccccc2)cc1` [Toremifene] was tested. Which normalised viability (BT-474; 10 nM) did it give?
Answer: 132%

Question: What about the normalised viability (BT-474; 1000 nM) of the same compound?
Answer: 119%

Question: What about the normalised viability (BT-474; 10000 nM) of the same compound?
Answer: 92.4%

Question: What about the normalised viability (BT-549; 10 nM) of the same compound?
Answer: 106%

Question: And the normalised viability (BT-549; 1000 nM)?
Answer: 113%

Question: What about the normalised viability (BT-549; 10000 nM) of the same compound?
Answer: 88.1%

Question: And the normalised viability (CAL-120; 10 nM)?
Answer: 85.2%

Question: And the normalised viability (CAL-120; 1000 nM)?
Answer: 96.1%

Question: And the normalised viability (CAL-120; 10000 nM)?
Answer: 79.1%

Question: And the normalised viability (CAL-148; 3 nM)?
Answer: 94%

Question: What about the normalised viability (CAL-148; 30 nM) of the same compound?
Answer: 97.6%

Question: And the normalised viability (CAL-148; 100 nM)?
Answer: 108%

Question: What about the normalised viability (CAL-51; 3 nM) of the same compound?
Answer: 107%

Question: And the normalised viability (CAL-51; 30 nM)?
Answer: 98.4%

Question: And the normalised viability (CAL-51; 100 nM)?
Answer: 110%

Question: And the normalised viability (CAL-85-1; 3 nM)?
Answer: 99.2%

Question: What about the normalised viability (CAL-85-1; 30 nM) of the same compound?
Answer: 92.9%

Question: And the normalised viability (CAL-85-1; 100 nM)?
Answer: 95.8%

Question: And the normalised viability (DU-4475; 3 nM)?
Answer: 110%

Question: And the normalised viability (DU-4475; 30 nM)?
Answer: 98.6%

Question: And the normalised viability (DU-4475; 100 nM)?
Answer: 99.4%

Question: And the normalised viability (HCC1143; 10 nM)?
Answer: 92.5%

Question: What about the normalised viability (HCC1143; 1000 nM) of the same compound?
Answer: 97.3%

Question: What about the normalised viability (HCC1143; 10000 nM) of the same compound?
Answer: 102%

Question: And the normalised viability (HCC1599; 10 nM)?
Answer: 127%

Question: And the normalised viability (HCC1599; 1000 nM)?
Answer: 97.5%

Question: What about the normalised viability (HCC1599; 10000 nM) of the same compound?
Answer: 89.6%

Question: What about the normalised viability (HCC1937; 10 nM) of the same compound?
Answer: 129%

Question: And the normalised viability (HCC1937; 1000 nM)?
Answer: 93.1%

Question: And the normalised viability (HCC1937; 10000 nM)?
Answer: 114%

Question: And the normalised viability (HDQ-P1; 3 nM)?
Answer: 108%

Question: And the normalised viability (HDQ-P1; 30 nM)?
Answer: 109%

Question: What about the normalised viability (HDQ-P1; 100 nM) of the same compound?
Answer: 113%

Question: And the normalised viability (Hs578T; 10 nM)?
Answer: 122%

Question: What about the normalised viability (Hs578T; 1000 nM) of the same compound?
Answer: 109%

Question: And the normalised viability (Hs578T; 10000 nM)?
Answer: 94.6%

Question: And the normalised viability (MDA-MB-231; 10 nM)?
Answer: 95.8%

Question: What about the normalised viability (MDA-MB-231; 1000 nM) of the same compound?
Answer: 101%

Question: What about the normalised viability (MDA-MB-231; 10000 nM) of the same compound?
Answer: 108%

Question: And the normalised viability (MDA-MB-436; 10 nM)?
Answer: 99%

Question: And the normalised viability (MDA-MB-436; 1000 nM)?
Answer: 96.3%

Question: And the normalised viability (MDA-MB-436; 10000 nM)?
Answer: 71.1%

Question: What about the normalised viability (MDA-MB-453; 3 nM) of the same compound?
Answer: 126%

Question: And the normalised viability (MDA-MB-453; 30 nM)?
Answer: 91.4%

Question: And the normalised viability (MDA-MB-453; 100 nM)?
Answer: 112%

Question: And the normalised viability (MDA-MB-468 [2]; 10 nM)?
Answer: 104%

Question: And the normalised viability (MDA-MB-468 [2]; 1000 nM)?
Answer: 109%

Question: What about the normalised viability (MDA-MB-468 [2]; 10000 nM) of the same compound?
Answer: 17.9%

Question: What about the normalised viability (MFM-223; 10 nM) of the same compound?
Answer: 98.1%

Question: And the normalised viability (MFM-223; 1000 nM)?
Answer: 96.1%

Question: And the normalised viability (MFM-223; 10000 nM)?
Answer: 71.8%

Question: What about the normalised viability (SK-BR-3; 10 nM) of the same compound?
Answer: 113%

Question: What about the normalised viability (SK-BR-3; 1000 nM) of the same compound?
Answer: 107%

Question: And the normalised viability (SK-BR-3; 10000 nM)?
Answer: 91.4%

Question: For `COc1cc2c(NC3CCN(C(C)C)CC3)nc(N3CCC(F)(F)CC3)nc2cc1OCCCN1CCCC1` [UNC0642], which “EC50, CellTiter-Glo” value (MDA-MB-468 [1]) is on record?
Answer: 2050 nM
